Measurements as given in US10487054B2, “Therapeutic compounds” (REGENTS OF THE UNIVERSITY OF MINNESOTA, priority 2017, dated 2019).

Assays:
MEK1/2 = assay: Pull-down assay with HaCaT cell lysates; assay type: binding, human; details: HaCaT cell lysates 500 μg, Western blot
Description: (§1) Active TOPK (200 ng) was incubated with different concentrations of ATP (0, 10 or 100 μM) and then mixed with compound 1-conjugated Sepharose 4B beads or Sepharose 4B beads. Proteins were pulled down and analyzed by Western blot. Data are representative of 3 independent experiments that gave similar results. FIGS. 2C and 2D show compound 1 binds to either TOPK (2C) or MEK1/2 (2D) ex vivo. Lysates from HaCaT cells (500 μg) were incubated with compound 1-conjugated Sepharose 4B beads or Sepharose 4B beads alone and the pulled-down proteins were analyzed by Western blot. Data are representative of 3 independent experiments that gave similar results. FIGS. 2E and 2F show compound 1 inhibits TOPK kinase (2E) activity but not MEK1 kinase (2F) activity in vitro. Active TOPK (200 ng) was mixed with compound 1 (0, 0.5, 1, 3, or 5 μM) or HI-032 (TOPK inhibitor, 10 μM) and then incubated with a [γ-^32P] ATP mixture. Similarly, MEK1 (200 ng) was mixed with compound 1 (0, 0.5, 1, 3, 5, or 10 μM) or PD098059 (MEK1 inhibitor, 5 μM) and then incubated with a [γ-^32P] ATP mixture. For 2E and 2F, the results are visualized by autoradiography and Coomassie blue staining serves as a loading control. Data are representative of 3 independent experiments that gave similar results. […]

[1] = Absorbance scan by spectrophotometer; assay type: physicochemical
Description: Absorbance wavelengths of compound 1 were scanned using a Beckman DU®800 spectrophotometer.
In order to confirm whether compound 1 absorbs at UVA or UVB wavelengths, its ability to absorb SUV light between […] was examined. […] In addition, an anchorage-independent growth assay was performed to assess the effect of compound 1 on cell transformation. […] Similarly, cell proliferation was determined by a crystal violet staining assay.

MEK1 = biological target: T1, MEK1 (Homo sapiens, UniProt Q02750); assay: In vitro kinase assay ([γ-32P] ATP, autoradiography); assay type: biochemical; details: 0.5, 1, 3, 5 or 10 μM
T1 construct: purchased Millipore (Billerica, Mass.)
T1 sequence (Q02750 whole entry): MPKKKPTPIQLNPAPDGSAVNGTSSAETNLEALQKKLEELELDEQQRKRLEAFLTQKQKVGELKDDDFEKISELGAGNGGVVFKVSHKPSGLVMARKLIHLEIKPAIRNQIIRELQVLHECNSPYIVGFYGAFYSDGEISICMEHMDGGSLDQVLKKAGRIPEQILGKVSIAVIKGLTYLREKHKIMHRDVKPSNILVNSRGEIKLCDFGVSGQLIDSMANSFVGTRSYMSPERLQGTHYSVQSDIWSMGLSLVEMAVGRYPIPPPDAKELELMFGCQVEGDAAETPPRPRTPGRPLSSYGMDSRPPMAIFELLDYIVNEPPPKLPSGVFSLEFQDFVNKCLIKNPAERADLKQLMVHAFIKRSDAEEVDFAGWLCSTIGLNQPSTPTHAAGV
Description: as §1, with “control.” for “control. Data are representative of 3 independent experiments that gave similar results.”
The in vitro kinase assay was conducted according to the instructions provided by Millipore (Billerica, Mass.). […] The relative amounts of incorporated radioactivity were assessed by autoradiography.

[2] = system: JB6 P+ mouse epidermal skin cells; assay: MTS assay for cytotoxicity; assay type: cell-based; details: 24 or 48 h, concentrations less than 10 μM
Description: (§2) Cells (1×10^4 cells/well) were seeded into 96-well plates. After an overnight incubation, cells were treated with different concentrations of compound 1 and incubated for 24 or 48 h. Then 20 μL of the CellTiter 96 Aqueous One Solution (Promega, Madison, Wis.) were added to each well and cells were incubated for an additional 1 h at 37° C. Absorbance was measured at an optical density of 492 and 690 nm using the Thermo Multiskan plate-reader (Thermo Fisher Scientific, Waltham, Mass.).
as §2, with “plates for determining cytotoxicity.” for “plates.”, “(Promega Corporation,” for “(Promega,”

[3] = system: normal human dermal fibroblasts (NHDF); assay: MTS assay for cytotoxicity; assay type: cell-based; details: 24 or 48 h, concentrations less than 10 μM
Description: as §2
as §2, with “plates for determining cytotoxicity.” for “plates.”, “(Promega Corporation,” for “(Promega,”

SMILES: O=C1Nc2ccc(C34CC5CC(CC(C5)C3)C4)cc2C1=NO [compound 1, 5-(adamantan-1-yl)-3-(hydroxyimino)indolin-2-one]
- binding of MEK1/2 to compound-conjugated beads (MEK1/2): detected in the compound 1-conjugated beads group but not in the beads only group
- absorbance of UVA or UVB [1]: did not show significant absorbance of UVA or UVB
- peak absorption ([1]; scanned between 250 and 320 nm): 259 nm
- wavelength range of main light absorption ([1]; scanned between 250 and 320 nm): 250-275 nm
- MEK1 kinase activity (MEK1): but not MEK1 activity
- cytotoxicity [2]: no cytotoxicity
- cytotoxicity [3]: no cytotoxicity
